Experimental data reported in patent US20240287138A1, “CYCLIC PEPTIDES FOR INHIBITING TNF RECEPTOR 1 ACTIVITY” (Merck Sharp & Dohme LLC, priority 2023, published 2024).
pIC50: −log10 of the molar value. Numbered stars: 1 amine (or outer) side, 2 acyl side, 3 side chain; on linkers, the order of the positions; unused ones are H or OH. Bridge positions count the residues as written; N and C are the ends. Square brackets hold non-standard residues; d marks the D form. Peptide text beside a SMILES is read from it. Trp(βS-Me,7-OMe) = COc1cccc2c([C@H](C)[C@H](N)C(=O)O)c[nH]c12; X5 = COc1cccc2[nH]cc([C@H](C)[C@H](N[*:1])C(=O)[*:2])c12; Trp(βS-Me) = C[C@@H](c1c[nH]c2ccccc12)[C@H](N)C(=O)O; Phe(4-CH2COOH) = N[C@@H](Cc1ccc(CC(=O)O)cc1)C(=O)O; Trp(7-Cl) = N[C@@H](Cc1c[nH]c2c(Cl)cccc12)C(=O)O; Phe(3-CONH2) = NC(=O)c1cccc(C[C@H](N)C(=O)O)c1; Phe(4-CONH2) = NC(=O)c1ccc(C[C@H](N)C(=O)O)cc1; Phe(4-COOH) = N[C@@H](Cc1ccc(C(=O)O)cc1)C(=O)O; Trp(7-aza) = N[C@@H](Cc1c[nH]c2ncccc12)C(=O)O; Phe(4-CH2NH2) = NCc1ccc(C[C@H](N)C(=O)O)cc1; Pip(5R-OH) = O=C(O)[C@@H]1CC[C@@H](O)CN1; αMeW = C[C@](N)(Cc1c[nH]c2ccccc12)C(=O)O; Pip(4-aza) = O=C(O)[C@@H]1CNCCN1; 4Pal = N[C@@H](Cc1ccncc1)C(=O)O; NMeE = CN[C@@H](CCC(=O)O)C(=O)O; Cit = NC(=O)NCCC[C@H](N)C(=O)O; NMeS = CN[C@@H](CO)C(=O)O; Pip = O=C(O)[C@@H]1CCCCN1; αMeS = C[C@](N)(CO)C(=O)O; Nle = CCCC[C@H](N)C(=O)O; Sar = CNCC(=O)O

The compounds below were run against T1, TNFα-induced NF-κB signal transduction pathway (TNFR1 signaling) in THP-1 cells (Homo sapiens, UniProt P19438) (assay: THP-1 Lucia NF-κB reporter cell assay, inhibition of TNFα-induced NF-κB signaling). Conditions: THP-1 NF-κB Lucia reporter cells, 10 ng/mL TNFα, 16-18 h, secreted luciferase; read-out: THP-1 IC50.
T1 sequence (P19438 30-455): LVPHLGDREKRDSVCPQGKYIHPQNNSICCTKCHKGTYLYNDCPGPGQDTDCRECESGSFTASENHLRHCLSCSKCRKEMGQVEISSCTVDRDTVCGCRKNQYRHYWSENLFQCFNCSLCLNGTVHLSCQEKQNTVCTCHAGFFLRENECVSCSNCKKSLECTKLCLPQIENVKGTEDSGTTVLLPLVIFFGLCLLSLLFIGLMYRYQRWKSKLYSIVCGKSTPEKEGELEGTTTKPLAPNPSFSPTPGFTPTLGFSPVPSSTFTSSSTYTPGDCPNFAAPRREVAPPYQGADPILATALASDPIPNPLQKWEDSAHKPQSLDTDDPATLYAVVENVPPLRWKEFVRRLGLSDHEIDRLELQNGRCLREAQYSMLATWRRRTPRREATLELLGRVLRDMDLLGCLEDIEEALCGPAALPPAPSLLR
Type: cell-based
In short: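 Read-out: secreted Lucia luciferase luminescence (QUANTI-Luc) from supernatant after 16-18 h, 37 °C, 10 ng/mL rhTNFα. Peptide pretreatment 1 h at 37 °C; 20,000 cells/well, selection antibiotics omitted. IC50 via 4-parameter logistic model against min/max controls.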

Compound	pIC50
CCCC[C@@H]1NC(=O)CSC[C@@H](C(N)=O)NC(=O)[C@H]([C@@H](C)c2c[nH]c3c(OC)cccc23)NC(=O)CN(C)C(=O)[C@H](Cc2ccc(O)cc2)NC(=O)[C@H](Cc2ccc(C(=O)O)cc2)NC(=O)[C@](C)(CO)NC(=O)[C@H](Cc2c[nH]c3c(Cl)cccc23)NC(=O)[C@H](Cc2ccncc2)NC(=O)[C@H](CC(N)=O)NC(=O)[C@H]2CCCN2C(=O)[C@H](Cc2c[nH]c3ccccc23)NC(=O)[C@@H]2CC[C@@H](O)CN2C(=O)[C@H](Cc2ccncc2)NC1=O [SEQ ID NO. 203] ({CH2CO}-[Nle][4Pal][Pip(5R-OH)]W[dP]N[4Pal][Trp(7-Cl)][αMeS][Phe(4-COOH)]Y[Sar][Trp(βS-Me,7-OMe)]C-NH2; thioether N-14)	8.80
CCCC[C@@H]1NC(=O)CSC[C@@H](C(N)=O)NC(=O)[C@](C)(Cc2c[nH]c3ccccc23)NC(=O)CN(C)C(=O)[C@H](Cc2ccc(O)cc2)NC(=O)[C@H](Cc2cccc(C(N)=O)c2)NC(=O)[C@](C)(CO)NC(=O)[C@H](Cc2c[nH]c3c(Cl)cccc23)NC(=O)[C@H](Cc2ccncc2)NC(=O)[C@H](CC(N)=O)NC(=O)[C@H](CCC(=O)O)N(C)C(=O)[C@H](Cc2c[nH]c3ncccc23)NC(=O)[C@H](CO)NC(=O)[C@H](Cc2ccc(CN)cc2)NC1=O [SEQ ID NO. 205] ({CH2CO}-[Nle][Phe(4-CH2NH2)]S[Trp(7-aza)][NMeE]N[4Pal][Trp(7-Cl)][αMeS][Phe(3-CONH2)]Y[Sar][αMeW]C-NH2; thioether N-14)	8.14
CCCC[C@@H]1NC(=O)CSC[C@@H](C(N)=O)NC(=O)[C@H]([C@@H](C)c2c[nH]c3cccc(OC)c23)NC(=O)CN(C)C(=O)[C@H](Cc2ccc(O)cc2)NC(=O)[C@H](Cc2ccc(C(N)=O)cc2)NC(=O)[C@](C)(CO)NC(=O)[C@H](Cc2c[nH]c3c(Cl)cccc23)NC(=O)[C@H](Cc2ccc(C(=O)O)cc2)NC(=O)[C@H](CC(N)=O)NC(=O)[C@H](CCC(=O)O)N(C)C(=O)[C@H](Cc2c[nH]c3ncccc23)NC(=O)[C@H](CO)N(C)C(=O)[C@H](Cc2ccncc2)NC1=O [SEQ ID NO. 209] ({CH2CO}-[Nle][4Pal][NMeS][Trp(7-aza)][NMeE]N[Phe(4-COOH)][Trp(7-Cl)][αMeS][Phe(4-CONH2)]Y[Sar][X5]C-NH2; thioether N-14)	8.57
CCCC[C@@H]1NC(=O)CSC[C@@H](C(N)=O)NC(=O)[C@H]([C@@H](C)c2c[nH]c3c(OC)cccc23)NC(=O)CN(C)C(=O)[C@H](Cc2ccc(O)cc2)NC(=O)[C@H](Cc2ccc(C(=O)O)cc2)NC(=O)[C@](C)(CO)NC(=O)[C@H](Cc2c[nH]c3c(Cl)cccc23)NC(=O)[C@H](Cc2ccc(CC(=O)O)cc2)NC(=O)[C@H](CC(N)=O)NC(=O)[C@H](CCC(=O)O)N(C)C(=O)[C@H](Cc2c[nH]c3ccccc23)NC(=O)[C@@H]2CCCCN2C(=O)[C@H](Cc2ccncc2)NC1=O [SEQ ID NO. 212] ({CH2CO}-[Nle][4Pal][Pip]W[NMeE]N[Phe(4-CH2COOH)][Trp(7-Cl)][αMeS][Phe(4-COOH)]Y[Sar][Trp(βS-Me,7-OMe)]C-NH2; thioether N-14)	8.55
C[C@@H](c1c[nH]c2ccccc12)[C@@H]1NC(=O)CN(C)C(=O)[C@H](Cc2c[nH]cn2)NC(=O)[C@H](Cc2ccc(C(=O)O)cc2)NC(=O)[C@](C)(CO)NC(=O)[C@H](Cc2c[nH]c3c(Cl)cccc23)NC(=O)[C@H](Cc2ccc(C(=O)O)cc2)NC(=O)[C@H](CC(N)=O)NC(=O)[C@H]2CCCN2C(=O)[C@H]([C@@H](C)c2c[nH]c3ccccc23)NC(=O)[C@H](CO)NC(=O)[C@H](Cc2ccc(CN)cc2)NC(=O)[C@H](CCCNC(N)=O)NC(=O)CSC[C@@H](C(N)=O)NC1=O [SEQ ID NO. 215] ({CH2CO}-[Cit][Phe(4-CH2NH2)]S[Trp(βS-Me)][dP]N[Phe(4-COOH)][Trp(7-Cl)][αMeS][Phe(4-COOH)]H[Sar][Trp(βS-Me)]C-NH2; thioether N-14)	8.01
CCCC[C@@H]1NC(=O)CSC[C@@H](C(N)=O)NC(=O)[C@H]([C@@H](C)c2c[nH]c3c(OC)cccc23)NC(=O)CN(C)C(=O)[C@H](Cc2ccc(O)cc2)NC(=O)[C@H](Cc2ccc(C(=O)O)cc2)NC(=O)[C@](C)(CO)NC(=O)[C@H](Cc2c[nH]c3c(Cl)cccc23)NC(=O)[C@H](Cc2ccc(OC)cc2)NC(=O)[C@H](CC(N)=O)NC(=O)[C@H](CCC(=O)O)N(C)C(=O)[C@H](Cc2c[nH]c3ccccc23)NC(=O)[C@@H]2CNCCN2C(=O)[C@H](Cc2ccncc2)NC1=O [SEQ ID NO. 218] ({CH2CO}-[Nle][4Pal][Pip(4-aza)]W[NMeE]NY(Me)[Trp(7-Cl)][αMeS][Phe(4-COOH)]Y[Sar][Trp(βS-Me,7-OMe)]C-NH2; thioether N-14)	8.47
